In patent publication US20240182406A1, “COMPOUNDS AS SOLUBLE EPOXIDE HYDROLASE INHIBITORS” (UNIVERSITAT DE BARCELONA, priority 2021, published 2024):
Marks after values point to notes of the source that are not given here.

Columns and labels:
[1] = In vitro determination of microsomal stability; assay type: in vitro ADME; settings: human microsomes, 37° C., samples at 0-60 min
Procedure: The human recombinant microsomes employed were purchased from Tebu-Xenotech. […] Samples (75 μL) were taken from each well at 0, 10, 20, 40 and 60 min and transferred to a plate containing 4° C. 75 μL acetonitrile and 30 μL of 0.5% formic acid in water were added for improving the chromatographic conditions. The plate was centrifuged (46000 g, 30 min) and supernatants were taken and analyzed in a UPLC-MS/MS (Xevo-TQD, Waters) by employing a BEH C18 column and an isocratic gradient of 0.1% formic acid in water:0.1% formic acid acetonitrile (60:40). The metabolic stability of the compounds was calculated from the logarithm of the remaining compounds at each of the time points studied.

[2] = test system: 5×FAD mice; assay: Novel Object Recognition Test (NORT) in 5×FAD mouse model of Alzheimer disease; assay type: in vivo; settings: 5×FAD model, 5 mg/kg, treated vs control groups
Text: 5×FAD (tg6799) is an early-onset mouse transgenic model which overexpress mutant human APP(695) with the Swedish (K670N, M671L), Florida (I716V) and London (V717I) Familial Alzheimer's Disease (FAD) mutations along with human PS1 harbouring two FAD mutations (M146L and L286V). The Tg6799 line used is the original hybrid B6SJL background, and this hybrid B6SJL strain is used as a control of healthy animals. The mouse Thy1 promoter regulates both transgenes to drive overexpression in the brain. […]
The test compound was dissolved in 1.8% hydroxypropyl-beta-cyclodextrin and concentration in water was calculated according to the weekly animal consumption to reach the precise daily dose. […] The amount of water that the animals drink was monitored weekly, by the cage, and drug concentration was adjusted every week to reach the precise dose. […]
Mice were placed in a 90°, two-arm, 25-cm-long, 20-cm-high, 5-cm-wide black maze. […] During this second trial, objects A and B were placed in the maze and the behaviour of the mice was recorded with a camera. The time that the mice explored the New object (TN) and Time that the mice explored the Old object […] (TO) were measured. […]

[3] = test system: TREM2; assay: Western blot of hippocampus, neuroinflammation marker TREM2 (5×FAD mice); assay type: in vivo, mouse; settings: 5×FAD male mice, 5 mg/kg, 4 weeks, Arbitrary Units, control as 100%
Text: (§1) 5×FAD (tg6799) is an early-onset mouse transgenic model which overexpress mutant human APP(695) with the Swedish (K670N, M671L), Florida (I716V) and London (V717I) Familial Alzheimer's Disease (FAD) mutations along with human PS1 harbouring two FAD mutations (M146L and L286V). The Tg6799 line used is the original hybrid B6SJL background, and this hybrid B6SJL strain is used as a control of healthy animals. The mouse Thy1 promoter regulates both transgenes to drive overexpression in the brain. 5×FAD mice recapitulate major features of AD amyloid pathology and is a useful model of intraneuronal Abeta-42 induced neurodegeneration with amyloid increase brain content and amyloid plaque formation and tau hyperphosphorylation (J Neurosci. 2006, 26(40), 10129-10140).
The test compound was dissolved in 1.8% hydroxypropyl-beta-cyclodextrin and concentration in water was calculated according to the weekly animal consumption to reach the precise daily dose. A freshly made weekly replaces the drinking solution. The amount of water that the animals drink was monitored weekly, by the cage, and drug concentration was adjusted every week to reach the precise dose. […]
Afterwards, membranes were washed and incubated with secondary antibodies for 1 h at room temperature. […] Immunodetection of GADPH routinely monitored protein loading. […]

[4] = test system: amyloid plaques; assay: Thioflavin S staining of amyloid plaques in brain slices (5×FAD mice); assay type: in vivo, mouse; settings: 5×FAD male mice 6-month-old, 5 mg/kg, 4 weeks, mean ± SEM
Text: as §1
The test compound was dissolved in 1.8% hydroxypropyl-beta-cyclodextrin and concentration in water was calculated according to the weekly animal consumption to reach the precise daily dose. A freshly made weekly replaces the drinking solution. The amount of water that the animals drink was monitored weekly, by the cage, and drug concentration was adjusted every week to reach the precise dose. After 4 weeks of maintained treatment, mice were studied in the behavioural tests.
After NORT, animals were sacrificed and the whole hippocampus dissected or brain slices from control and treated mice obtained by using a cryostat. […]

[5] = test system: SH-SY5Y cells; settings: 100 μM, 24 h
Procedure: 50 ul of Cell titer Glo reagent was added to each well and incubated for 10 min.

[6] = test system: mouse primary microglia; assay: AβO-induced microglial activation, qPCR; assay type: cell-based; settings: pretreated with compound followed by Aβ1-42 (2 μM)
Procedure: To validate the inhibition efficacy of sEH, 3×10^5 microglia isolated from CD1 mouse brain were seeded onto 12 well culture plates in microglia medium.
Total RNAs were isolated from microglia or astrocyte using a Quick-RNA kit (Zymo Research, Inc., Irvine, CA, USA). The concentration of total RNAs was measured using a UV-Vis spectrophotometer (NanoDrop8000, Thermo Fisher Scientific Inc., Wilmington, DE, USA) and reverse-transcribed with a high-capacity cDNA reverse transcription kit (Applied Biosystems, Carlsbad, CA, USA). Gene expression was quantified by Fast SYBR green real-time PCR on a Quantstudio 5 system (Applied Biosystems). The primer sequences are listed below (Table 8). Data were analyzed according to the comparative Ct method. Glyceraldehyde 3-phosphate dehydrogenase (Gapdh) was used to normalize the amounts of cDNA within each sample.

SMILES: O=C(NC12CC3CC(Cl)(CC(C1)c1ccccc13)C2)N[C@H]1CC[C@H](Oc2ccc(C(=O)O)cc2)CC1 [Example 2, 4-[((1r,4r)-4-(3-(9-chloro-5,6,8,9,10,11-hexahydro-7H-5,9:7,11-dimethanobenzo[9]annulen-7-yl)ureido)cyclohexyl)oxy]benzoic acid]
- Microsomal stability (% remanent) [1]: 89%
- memory deficits by NORT [2]: reduced memory deficits
- TREM2 protein levels ([3]; listed as Cpd. Ex. 2): 118.42 ± 6.53*^
- TREM2 protein levels ([3]; listed as compound of example 2): significant diminution in the protein levels
- Number of Aβ plaques [4]: 292 ± 83
- neuronal cell toxicity (viability) [5]: did not show any neuronal cell toxicity
- mRNA for pro-inflammatory cytokines II-6 and II-1b [6]: prevented
